Source: patent publication US20240308985A1 (Psy Therapeutics, Inc., priority 2021, published 2024)
Like-named read-outs stand apart in the source and are kept apart here.

What was measured:
[1] = Pharmacokinetic study of compounds in mice (brain exposure); format: in vivo, male C57BL/6 mice; settings: oral
Description: Healthy male C57BL/6 mice (8-12 weeks old) weighing between 17 to 35 g were procured from Global, India. Temperature and humidity were maintained at 22±f3° C. and 30-70%, respectively and illumination was controlled to give a sequence of 12 hr light and 12 hr dark cycle. Temperature and humidity were recorded by auto-controlled data logger system. All the animals were provided laboratory rodent diet. Reverse osmosis water treated with ultraviolet light was provided ad libitum.
Protocol A: Twenty-four male mice were divided into two groups as; Group 1: 30 mg/kg/IP; Plasma and brain; Number of animals=12: Animal #1-12. Group 2: 30 mg/kg/PO; Plasma and brain; Number of animals=12; Animal #13-24. Animals in Group 1 were administered intraperitoneally with solution formulation of PSY-05-00074-001 in 5% NMP, 5% Solutol HS-15 and 90% normal saline at 30 mg/kg dose. Animals in Group 2 were administered orally with solution formulation of PSY-05-00074-001 in 5% NMP, 5% Solutol HS-15 and 90% normal saline at 30 mg/kg dose. Blood samples (approximately 60 μL) were collected under light isoflurane anesthesia from retro orbital plexus at 0.25, 0.5, 1, 2, 4 and 8 hr (IP and PO). Plasma samples were separated by centrifugation of whole blood and stored below −70° C. until bioanalysis. Immediately after collection of blood from intraperitoneal and oral group animals, animals were euthanized with excess CO2 and brain samples were collected from set of two mice at each time point. Brain samples were divided into two parts. Half brain samples were homogenized using ice-cold phosphate buffer saline (pH—7.4) and homogenates were stored below −70±10° C. until analysis. Total homogenate volume was three times the brain weight. Other part of brain was stored below −70±10° C. for further analysis. All samples were processed for analysis by protein precipitation using acetonitrile and analyzed with fit-for-purpose LC/MS/MS method (LLOQ—2.02 ng/mL for plasma and 6.06 ng/g for brain). Pharmacokinetic parameters were calculated using the non-compartmental analysis tool of Phoenix WinNonlin®.
Protocol B: Thirty six mice were included into the study and divided in to three groups as Group 1 (n=12), Group 2 (n=12) and Group 3 (n=12) with n=2 mice per time-point design. Animals in Group 1 were administered intravenously with solution formulation of PSY-05-00414-001 at 5 mg/kg dose. Animals in Group 2 were administered orally with solution formulation of PSY-05-00414-001 at a dose of 5 mg/kg. Animals in Group 3 were administered intraperitoneally with solution formulation of PSY-05-00414-001 at 5 mg/kg dose. The formulation vehicle for all the three groups was 5% NMP, 5% Solutol HS-15 and 90% normal saline. Blood samples (approximately 60 μL) were collected under light isoflurane anesthesia from two mice at 0.25, 0.5, 1, 2, 4 and 8 h. Plasma was harvested by centrifugation of blood and stored at −70±10° C. until analysis. After blood collection, brain was perfused and isolated at 0.25, 0.5, 1, 2, 4 and 8 h. Brain samples were dipped thrice in ice-cold phosphate buffer saline, blotted dry and cut in to two equal portion. Half-brain samples from each time-point were weighed and homogenized using ice-cold phosphate buffer saline with twice volume of brain weight making the total homogenate three volumes and stored below −70±10° C. until analysis. Remaining half-portions of brain samples was snap freeze and kept in −70±10° C. until further confirmation from client. Plasma and brain samples were quantified by fit-for-purpose LC-MS/MS method (LLOQ: 1.01 ng/mL for plasma and 2.02 ng/mL for brain).
Protocol C: Fifty four male mice were included in study and divided in to three groups as Group 1 (n=18), Group 2 (n=18) and Group 3 (n=18) with 3 mice/time point design. Animals from Group 1, Group 2 and Group 3 were administered by intravenous, oral and intraperitoneal route with solution formulation of PSY-05-00451-001 at 5 mg/kg dose, respectively. […]

[2] = target: Monoacylglycerol Lipase (MAGL) (Homo sapiens (Human), UniProt Q99685); test: MAGL inhibition potency (IC50) assay with 4NPA substrate; format: biochemical; settings: Method 13: Reaction Biology MAGL enzyme, 12 nM; read-out: MAGL Potency (Detection Method)
Sequence of Monoacylglycerol Lipase (MAGL) (Q99685 2-303): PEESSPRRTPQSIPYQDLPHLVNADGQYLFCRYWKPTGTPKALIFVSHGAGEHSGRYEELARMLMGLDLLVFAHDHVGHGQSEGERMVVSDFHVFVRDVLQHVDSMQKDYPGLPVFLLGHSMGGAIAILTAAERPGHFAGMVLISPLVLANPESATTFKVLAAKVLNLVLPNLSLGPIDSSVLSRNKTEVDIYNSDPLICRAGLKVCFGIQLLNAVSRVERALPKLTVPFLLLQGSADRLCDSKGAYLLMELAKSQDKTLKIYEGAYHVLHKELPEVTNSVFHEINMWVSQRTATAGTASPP

Row | SMILES | AUClast ([1]; 5 mg/kg) [ng·h/mL] | Cmax ([1]; 5 mg/kg) [ng/g] | IC50 [2] [nM] | AUC(0-t) ([1]; male, C57BL/6, mouse, 30 mg/kg, Protocol A) [ng·h/mL] | Cmax ([1]; male, C57BL/6, mouse, 30 mg/kg, Protocol A, read-out: Cmax) [ng/g]
1 | O=C(c1ccc(F)cc1OC1CC1)N1CC2(CC(n3nc(-c4ccccc4C(F)(F)F)cc3C(F)(F)F)C2)C1 (single isomer, unassigned) [Compound 451, (2-cyclopropoxy-4-fluorophenyl)(6-{5-(trifluoromethyl)-3-[o-(trifluoromethyl)phenyl]-1-pyrazolyl}-2-aza-2-spiro[3.3]heptyl)methanone] | 1204.22 | 271.39 |  |  | 
2 | Cc1cnn(C2CC3(C2)CN(C(=O)c2cc(O)ccc2F)C3)c1-c1cc(F)ccc1F (single isomer, unassigned) [Compound 476, (6-(5-(2,5-Difluorophenyl)-4-methyl-1H-pyrazol-1-yl)-2-azaspiro [3.3]heptan-2-yl) (2-fluoro-5-hydroxyphenyl) methanone] | 223.64 | 72 | 50 to 150 |  | 
3 | Cc1cc(C2CC3(C2)CN(C(=O)c2cc(O)ccc2F)C3)n(-c2ccccc2C)n1 [Compound 74, (2-fluoro-5-hydroxyphenyl)(6-(3-methyl-1-(o-tolyl)-1H-pyrazol-5-yl)-2-azaspiro[3.3]heptan-2-yl)methanone] |  |  |  | 117 | 102
